In brackets after ≈: the same amount, converted by molar mass. Non-standard residues stand in square brackets, D forms with d. Residues, ends and D or L forms follow the SMILES beside them. Dab = NCC[C@H](N)C(=O)O
What was measured:
MCF-12F cells = assay: MTT antiproliferative assay, MCF-12F; type: cell-based, human; conditions: 72 h, non-tumorigenic cell line, read-out: Mean IC50 ± SD, MCF-12F
Experimental: (§1) The cell lines BALB 3T3 (mouse embryonic fibroblasts) and MCF-12F (human breast epithelial cells) were used as models for healthy tissue. The MCF-7 and MDA-MB-231 cell lines were used as in vitro models for luminal A- and basal B-type breast cancer, respectively. Cell lines were obtained from the American Type Cultures Collection (ATCC, Manassas, VA, USA). Cells were cultured in Dulbecco modified Eagle’s medium (DMEM) supplemented with 10% fetal bovine serum (FBS), 100 U/mL penicillin, and 0.1 mg/mL streptomycin (Sigma-Aldrich, Schnelldorf, Germany) in an incubator at 37 °C, 5% CO2 and 95% humidity. Plastic flasks 75 cm^2 (Biologix, Lenexa, KS, USA) were used to grow the cells.
(§2) The antiproliferative activity testing was performed on cell cultures using the MTT-dye reduction assay. This assay is based on the metabolism of MTT to insoluble formazan by mitochondrial reductases. The formazan concentration can be determined spectrophotometrically. The measured absorption is an indicator of cell viability. Cell lines (MCF-12F, MCF-7 and MDA-MB-231) were used in the experiments. Cells were plated at a density of 1 × 10^3 cells/100 µL in each well of 96-well microplates and allowed to adhere for 24 h before treatment with test compounds. A concentration range from 4 to 1000 μM was applied for 72 h. The formazan absorption was registered using a microplate reader at λ = 540 nm. Antiproliferative activities were expressed as IC50 values (concentrations required for 50% inhibition of cell growth).

[1] = system: Pseudomonas aeruginosa NBIMCC 3700; type: cell-based; conditions: broth dilution, 0 to 320 µg/mL, 24 h; NI = no inhibition monitored
Experimental: (§3) The parent peptide Temporin A and the novel analogs were subjected to tests against model strains Escherichia coli NBIMCC 8785, Bacillus subtilis NBIMCC 3562, Arthrobacter oxydans NBIMCC 9333, Pseudomonas aeruginosa NBIMCC 3700, and Candida albicans NBIMCC 74, for the assessment of their antimicrobial activity. The strains were acquired from the National Bank for Industrial Microorganisms and Cell Cultures (NBIMCC, Bulgaria). The strain E. coli 8785 was cultured in Luria-Bertani broth (LB, HiMedia, Mumbai, India); B. subtilis 3562—in nutrient broth (NB, HiMedia, Mumbai, India); A. oxydans 9333; P. aeruginosa 3700—in meat peptone agar (MPA) medium; and C. albicans 74—in yeast mold (YM) medium. An incubator shaker ES-20/60 (Biosan, Latvia) was used for the cultivation and was set to 30 °C for B. subtilis 3562, A. oxydans 9333, and C. albicans 74; and 37 °C for E. coli 8785 and P. aeruginosa 3700, with a 24 h shaking period at 120 rpm. The microbial cultures were then adjusted to a turbidity of 0.5 McFarland using a Grant-bio DEN-1B densitometer (Grant Instruments, Royston, UK) for further use.
(§4) The minimal inhibitory concentration (MIC) of the peptides was determined using the broth dilution method. Stock solutions of the peptides with a concentration of 10 mg/mL in 10% EtOH/H2O were prepared. Suspensions of the bacteria in the corresponding media were added to 96-well U-shaped bottom polystyrene plates (Deltalab S.L., Spain) and exposed to the peptide in the concentration range from 0 to 320 µg/mL, and a 10% EtOH/H2O control, diluted using the same scheme as the peptides, was also used. The plates were then incubated under aerobic conditions at the corresponding temperature for 24 h. The MIC (µg/mL) was assumed as the lowest concentration of the antimicrobial, where there was visible inhibition of the strain. The absorbance was measured at 630 nm (Microplate reader PKL PPC 142, Paramedical srl, Salerno, Italy). To determine the minimal bactericidal concentration (MBC) and minimal fungicidal concentration (MFC), 10 μL from concentrations greater than or equal to the MIC was placed on the corresponding solid nutrient medium. The Petri dishes were then incubated at 30 or 37 °C for 24 h. All experiments were conducted in a triplicate.

[2] = system: Arthrobacter oxydans NBIMCC 9333; type: cell-based; conditions: broth dilution, 0 to 320 µg/mL, 24 h; NI = no inhibition monitored
Experimental: as §3, §4

[3] = system: Bacillus subtilis NBIMCC 3562; type: cell-based; conditions: broth dilution, 0 to 320 µg/mL, 24 h; NI = no inhibition monitored
Experimental: as §3, §4

[4] = system: Escherichia coli NBIMCC 8785; type: cell-based; conditions: broth dilution, 0 to 320 µg/mL, 24 h; NI = no inhibition monitored
Experimental: as §3, §4

MDA-MB-231 cells = assay: MTT antiproliferative assay, MDA-MB-231; type: cell-based, human; conditions: for IC50: MTT, 72 h, read-out: Mean IC50 ± SD, MDA-MB-231; for SI (Selectivity Index), MDA-MB-231: SI = IC50 MCF-12F/IC50 tumor cells
Experimental: as §1, §2

[5] = system: Candida albicans NBIMCC 74; type: cell-based; conditions: broth dilution, 0 to 320 µg/mL, 24 h; NI = no inhibition monitored
Experimental: as §3, §4

| SMILES | IC50 (MCF-12F cells) [µM] | MIC, P. aeruginosa 3700 [1] [µg/mL] | MIC, A. oxydans 9333 [2] [µg/mL] | MIC, B. subtilis 3562 [3] [µg/mL] | MIC, E. coli 8785 [4] [µg/mL] | IC50 (MDA-MB-231 cells) [µM] | SI (Selectivity Index), MDA-MB-231 (MDA-MB-231 cells) | MIC, C. albicans 74 [5] [µg/mL] |
| --- | --- | --- | --- | --- | --- | --- | --- | --- |
| CC[C@H](C)[C@H](NC(=O)CNC(=O)[C@H](CO)NC(=O)[C@H](CC(C)C)NC(=O)[C@@H](NC(=O)[C@H](CCN)NC(=O)CNC(=O)[C@@H](NC(=O)[C@H](CC(C)C)NC(=O)[C@@H]1CCCN1C(=O)[C@H](CC(C)C)NC(=O)[C@@H](N)Cc1ccccc1)[C@@H](C)CC)C(C)C)C(=O)N[C@@H](CC(C)C)C(N)=O [DTDab, FLPLIG-Dab-VLSGIL-NH2] (H-FLPLIG[Dab]VLSGIL-NH2; N-terminus assumed) | 280 ± 13.6 | 320 (≈ 239 µM) | 320 (≈ 239 µM) | 160 (≈ 119 µM) | 320 (≈ 239 µM) | 174.9 ± 1.35 | 1.60 | – |
| CC[C@H](C)[C@H](NC(=O)CNC(=O)[C@H](CO)NC(=O)[C@H](CC(C)C)NC(=O)[C@@H](NC(=O)[C@H](CCCCN)NC(=O)CNC(=O)[C@@H](NC(=O)[C@H](CC(C)C)NC(=O)[C@@H]1CCCN1C(=O)[C@H](CC(C)C)NC(=O)[C@@H](N)Cc1ccccc1)[C@@H](C)CC)C(C)C)C(=O)N[C@@H](CC(C)C)C(N)=O [DTF, FLPLIG-K-VLSGIL-NH2, reference compound] (H-FLPLIGKVLSGIL-NH2) | 100 ± 3.3 | 160 (≈ 117 µM) | 80 (≈ 58.4 µM) | 80 (≈ 58.4 µM) | 320 (≈ 234 µM) | 77 ± 2.92 | 1.30 | 320 (≈ 234 µM) |
